The text below walks through data of patent publication US20110183929A1, “STANDARDIZED EXTRACT AND FRACTION FROM HANCORNIA SPECIOSA LEAVES AND PHARMACEUTICAL COMPOSITION THEREOF” (priority 2008, published 2011).

In assay [1] the target is T1, angiotensin converting enzyme (ACE) (Oryctolagus cuniculus, UniProt P12822).
T1 sequence (P12822 34-1310): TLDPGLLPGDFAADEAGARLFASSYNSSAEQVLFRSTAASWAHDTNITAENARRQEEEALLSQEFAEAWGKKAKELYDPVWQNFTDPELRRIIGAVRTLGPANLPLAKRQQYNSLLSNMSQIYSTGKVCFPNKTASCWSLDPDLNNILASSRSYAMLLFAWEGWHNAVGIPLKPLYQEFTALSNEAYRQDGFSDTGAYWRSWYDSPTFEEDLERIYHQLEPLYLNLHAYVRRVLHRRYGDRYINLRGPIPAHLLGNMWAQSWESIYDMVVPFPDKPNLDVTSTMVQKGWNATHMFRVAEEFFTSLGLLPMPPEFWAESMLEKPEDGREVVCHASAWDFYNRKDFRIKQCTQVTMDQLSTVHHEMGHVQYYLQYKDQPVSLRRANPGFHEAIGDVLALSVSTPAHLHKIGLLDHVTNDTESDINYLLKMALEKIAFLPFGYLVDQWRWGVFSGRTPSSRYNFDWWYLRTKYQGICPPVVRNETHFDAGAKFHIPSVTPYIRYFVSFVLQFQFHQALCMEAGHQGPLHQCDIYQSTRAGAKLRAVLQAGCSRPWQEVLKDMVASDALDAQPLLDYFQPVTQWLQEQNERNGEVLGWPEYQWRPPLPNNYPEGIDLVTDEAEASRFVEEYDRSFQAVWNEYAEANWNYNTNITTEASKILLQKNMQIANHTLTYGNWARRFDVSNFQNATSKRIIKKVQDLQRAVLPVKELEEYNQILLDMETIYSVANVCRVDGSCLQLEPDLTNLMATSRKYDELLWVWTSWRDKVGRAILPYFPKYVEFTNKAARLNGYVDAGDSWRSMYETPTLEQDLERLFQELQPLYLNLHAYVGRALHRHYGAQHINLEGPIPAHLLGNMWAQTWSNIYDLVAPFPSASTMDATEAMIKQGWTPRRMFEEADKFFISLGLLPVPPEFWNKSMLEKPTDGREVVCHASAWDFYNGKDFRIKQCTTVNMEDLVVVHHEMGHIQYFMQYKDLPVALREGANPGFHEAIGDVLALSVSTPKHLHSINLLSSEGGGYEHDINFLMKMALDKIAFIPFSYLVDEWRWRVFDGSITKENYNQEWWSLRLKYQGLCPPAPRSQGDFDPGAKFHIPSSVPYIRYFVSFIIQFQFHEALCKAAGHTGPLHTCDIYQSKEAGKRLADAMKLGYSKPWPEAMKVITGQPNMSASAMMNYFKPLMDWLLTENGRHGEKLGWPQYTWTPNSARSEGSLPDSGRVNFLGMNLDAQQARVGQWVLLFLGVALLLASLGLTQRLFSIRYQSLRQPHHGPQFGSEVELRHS
Put plainly: colorimetric ACE inhibition assay (Serra et al.). The class given is biochemical. The conditions noted are these: read-out: ACE inhibiting activity IC50. From the text: Despite being exhaustively referred to in ethnobotanic surveys, only few biological activities of Hancornia speciosa have been assessed. ACE inhibiting activity for ethanolic extract from the leaves of the said species has been referred to by Serra et al. (Serra, C. P.; Cortes, S. F.; Lombardi, J. A.; Braga De Oliveira, A.; Braga, F. C. Validation of a […] assay for the in vitro screening of inhibitors of angiotensin-converting enzyme (ACE) from plant extracts. Phytomedicine, v. 12, n. 6-7, 2005). These authors assessed several species of the Brazilian flora as for their ACE inhibiting potential. […] P.; Cortes, S. F.; Lombardi, J. A.; Braga De Oliveira, A.; Braga, F. C. Validation of a colorimetric assay for the in vitro screening of inhibitors of angiotensin-converting enzyme (ACE) from plant extracts. Phytomedicine, v. 12, n. 6-7, 2005), in the concentration of 0.1 mg/ml.

A further assay has as its system normotensive mice. The experiment in a line: systolic pressure in normotensive mice (caudal vessel). Format: in vivo. The settings on record: 1 mg/kg delivered orally.

Each structure is given as a SMILES string.

`C[C@@H]1O[C@@H](OC[C@H]2O[C@@H](Oc3c(-c4ccc(O)c(O)c4)oc4cc(O)cc(O)c4c3=O)[C@H](O)[C@@H](O)[C@@H]2O)[C@H](O)[C@H](O)[C@H]1O` [rutin]: the IC50 – broadly, the point on the concentration scale where inhibition reaches its midpoint – in assay [1] was found to be 454 ± 78.4 µM.
Still for that read-out and setting: with `COC1[C@H](O)[C@H](O)C(O)[C@H](O)[C@H]1O` (stereo partly drawn) [L-(+)-bornesitol] the figure was 41.4 ± 9.6 µM.
In the case of `C[C@H](CS)C(=O)N1CCC[C@H]1C(=O)O` [Captopril], the “systolic arterial pressure / hypotensive effect” value in the assay on normotensive mice is “significant hypotensive effect, but of low intensity and short duration”.
